Experimental data: patent publication US4342774A, “N-Acylcarnosine aluminum salt, its preparation, and a digestive ulcer remedy containing such salt” (Nippon Chemiphar Co., Ltd., priority 1979, dated 1982)
“And” between values parts separate entries of the source, which are not always exact repeats. Identical values can stand only once. Counter-ions that a name gives are not always drawn.

Legend:
[1] = tested on: Stress ulcer; assay: Stress ulcer (water immersion restraint), inhibitory effect, rats; type: in vivo, rat (male Donryu strain); details: P.O.; for Ulcer index (total length of all lesions): ten minutes before immersion; for % Inhibition: vs control of the same run
Experimental: (§1) The anti-ulcer effects and degrees of toxicity of the N-acylcarnosine aluminum compounds according to the invention were determined using rats in which instances various gastric ulcer models of rats were utilized to estimate the anti-ulcer effects.
Stress ulcer: Groups of ten male Donryu strain rats each weighing 240 to 260 g were placed in a stress cage which served to immobilize the animals therein and then immersed in a water bath of 23° C. on a level with the xiphoid process according to the method of K. Takagi et al [Jap. […] Seven hours after the immersion, each of the animals was withdrawn from the water bath and immediately sacrificed by a blow on the head, followed by removal of the stomach of each rat. The stomach was slightly inflated by injecting a 1% formalin solution and then immediately immersed in a 1% formalin solution, followed by incising the stomach along its greater curvature to measure the length (mm) of each lesion in the glandular portion under a dissecting microscope (10x). The total length (mm) of all the lesions of each rat was indicated as an ulcer index. Test medicine samples were given orally ten minutes before the immersion in water.

[2] = tested on: Aspirin-induced ulcer; assay: Aspirin-induced ulcer, inhibitory effect, rats; type: in vivo, rat (male Donryu strain); details: 1,000 mg/kg, P.O.; for Ulcer index (total length of all lesions): immediately after pylorus ligation, aspirin 100 mg/kg; for % Inhibition: vs control of the same run
Experimental: (§2) It will be noted that as control compounds for the purposes of comparison, use was made of L-carnosine, L-glutamine, N-acetyl-L-glutamine aluminum and aluminum sucrose sulfate which are known to have an anti-ulcer effect. The anti-ulcer effects and degrees of toxicity of the N-acylcarnosine aluminum compounds according to the invention were determined using rats in which instances various gastric ulcer models of rats were utilized to estimate the anti-ulcer effects.
Aspirin-induced ulcer: Groups of ten male Donryu strain rats each weighing 220 to 230 g were deprived of food for 24 hours. The pylorus of each rat was ligated under ether anethesia according to the method of S. Okabe et al [Jap. J. Pharmac. 24, 357-361 (1974)]. After the pylorus ligation, aspirin (100 mg/kg) was administered orally to each rat. Seven hours after the administration, each of the animals was sacrificed under ether anesthesia to remove its stomach. After collection of the gastric juice and treatment with a 1% formalin solution, the length (mm) of each lesion formed in the glandular portion was measured. The total length (mm) of all the lesions of each rat was indicated as an ulcer index. Test medicine samples were given orally immediately after the pylorus ligation.

[3] = tested on: Indomethacin-induced ulcer; assay: Indomethacin-induced ulcer, inhibitory effect, rats; type: in vivo, rat (male Donryu strain); details: 300 mg/kg, P.O.; for Ulcer index (total length of all lesions): ten minutes before pylorus ligation, indomethacin 25 mg/kg s.c.; for % Inhibition: vs control of the same run
Experimental: as §2
Indomethacin-induced ulcer: Groups of ten male Donryu strain rats each weighing 200 to 215 g were deprived of food for 24 hours. Then, the pylorus was ligated under ether anethesia, after which indomethacin was administered subcutaneously in an amount of 25 mg/kg to each rat. Seven hours after the administration, each of the animals was scarificed under ether anethesia to remove its stomach, followed by immersion in a 1% formalin solution for ten minutes. The stomach which had been semi-fixed was incised along its greater curvature, and the length (mm) of each lesion formed in the mucous membrane was measured under a dissecting microscope (10×). The total length (mm) of all the lesions of each rat was indicated as an ulcer index. Test medicine samples were given orally ten minutes before the pylorus legation.

[4] = tested on: rats; assay: Acute toxicity, oral, rats; type: in vivo; details: P.O., female rats, observed seven days; 10080 min
Experimental: (§3) Acute toxicity: Male and female Wister strain rats each weighing 150 to 200 g were divided into two groups, respectively, each group consisting of ten rats, and were administered orally with some of the N-acylcarnosine aluminum compounds according to the invention. The thus treated rats were visually observed for seven days after the administration.

[5] = Acute toxicity, oral, rats; type: in vivo; details: rat, in vivo, po; P.O., male rats, observed seven days
Experimental: as §3

[6] = tested on: Shay's ulcer; assay: Shay's ulcer (pylorus ligation), inhibitory effect, rats; type: in vivo, rat (male Donryu strain); details: P.O.; for Ulcer index (total area of all lesions) / % Inhibition: 1,000 mg/kg; for Ulcer index (total area of all lesions): immediately after pylorus ligation; for inhibition in vivo at 1000 mg/kg: 14 h, 1,000 mg/kg
Experimental: as §2
Shay's ulcer: Groups of ten male Donryu strain rats each weighing 210 to 230 g were deprived of food for 48 hours. The pylorus of each rat was ligated according to the method of Shay et al [Gastroenterology, 5, 43-61 (1945)]. Each of the animals was allowed to stand abstained from food and water for further 14 hours and then sacrificed to remove its stomach. After collection of the gastric juice, the ulcerated area (mm^2) in the forestomach of each rat was measured under a dissecting microscope (10x). The total area (mm^2) of all the lesions of each rat was indicated as an ulcer index. Test medicine samples were given orally immediately after the pylorus ligation.

[7] = tested on: Histamine-induced ulcer; assay: Histamine-induced ulcer, inhibitory effect, rats; type: in vivo, rat (male Donryu strain); details: P.O.; for Ulcer index (total length of all lesions): before histamine phosphate 300 mg/kg i.p.; for % Inhibition: vs control of the same run
Experimental: as §1
Histamine-induced ulcer: Groups of ten male Donryu strain rats each weighing 210 to 230 g were deprived of food for 48 hours and then administered intraperitoneally with histamine phosphate (300 mg/kg). Four hours after the administration, each of the animals was sacrificed under ether anesthesia, followed by removal of the stomach and immersion in a 1% formalin solution for ten minutes. The stomach which had been semi-fixed was incised along the greater curvature, and the length (mm) of each lesion was measured under a dissecting microscope (10×). The total length (mm) of all the lesions of each rat was indicated as an ulcer index. Test medicine samples were given orally before the histamine administration.

[8] = Rattus norvegicus, po, vs control of the same run

Molecule	Ulcer index (total length of all lesions) ([1]; 1,000 mg/kg)	% Inhibition ([1]; 1,000 mg/kg)	Ulcer index (total length of all lesions) [2]	% Inhibition [2]	Ulcer index (total length of all lesions) [3]	% Inhibition [3]	Ulcer index (total area of all lesions) [6]	inhibition in vivo at 1000 mg/kg [6, 8]	Ulcer index (total length of all lesions) ([7]; 300 mg/kg)	% Inhibition ([7]; 300 mg/kg)	% Inhibition ([6]; vs control of the same run)	other results
CC(=O)NCCC(=O)NC(Cc1c[nH]cn1)C(=O)O (racemic) [A, N-acetyl-DL-carnosine aluminum salt]	4.4 ± 2.2 mm	71.1%	0.6 ± 0.6 mm	96.6%	6.5 ± 2.2 mm	60.1%	0.5 ± 0.5 mm^2	79.2%	9.6 ± 1.8 mm	60.2%	–	Ulcer index (total length of all lesions) ([1]; 300 mg/kg): 8.0 ± 2.8 mm; % Inhibition ([1]; 300 mg/kg): 47.4%; LD50 [4]: > 10,000 mg/kg; LD50 at 168 h [5]: > 10000 mg/kg
CC(=O)NCCC(=O)N[C@@H](Cc1c[nH]cn1)C(=O)O [B, N-acetyl-L-carnosine aluminum salt]	4.8 ± 2.6 mm	72.6%	0.6 ± 0.6 mm	96.4%	6.4 ± 2.2 mm	61.9%	0.6 ± 0.4 mm^2	76%	9.1 ± 1.9 mm	60.4%	–	Ulcer index (total length of all lesions) ([1]; 300 mg/kg): 9.2 ± 3.0 mm; % Inhibition ([1]; 300 mg/kg): 47.4%; LD50 [4]: > 10,000 mg/kg; LD50 at 168 h [5]: > 10000 mg/kg
CC(=O)NCCC(=O)N[C@@H](Cc1c[nH]cn1)C(=O)O [C, N-acetyl-L-carnosine aluminum salt]	–	–	–	–	–	–	1.0 ± 0.7 mm^2	–	–	–	65.5%	–
CC(=O)NCCC(=O)N[C@@H](Cc1c[nH]cn1)C(=O)O [D, N-acetyl-L-carnosine aluminum salt]	–	–	–	–	–	–	0.9 ± 0.9 mm^2	–	–	–	69.0%	–
CCC(=O)NCCC(=O)N[C@@H](Cc1c[nH]cn1)C(=O)O [E, N-propionyl-L-carnosine aluminum salt]	–	–	–	–	–	–	0.7 ± 0.5 mm^2	77.4%	–	–	–	–
CCC(=O)NCCC(=O)N[C@@H](Cc1c[nH]cn1)C(=O)O [F, N-propionyl-L-carnosine aluminum salt]	–	–	–	–	–	–	0.9 ± 0.7 mm^2	–	–	–	71.0%	–
CCCCCCC(=O)NCCC(=O)N[C@@H](Cc1c[nH]cn1)C(=O)O [G, N-heptanoyl-L-carnosine aluminum salt]	–	–	–	–	–	–	0.9 ± 1.0 mm^2	71%	–	–	–	–
O=C(CCNC(=O)c1ccccc1)N[C@@H](Cc1c[nH]cn1)C(=O)O [H, N-benzoyl-L-carnosine aluminum salt]	–	–	–	–	–	–	1.0 ± 0.9 mm^2	67.7%	–	–	–	–
COc1ccccc1C(=O)NCCC(=O)N[C@@H](Cc1c[nH]cn1)C(=O)O [I, N-(o-methoxy)benzoyl-L-carnosine aluminum salt]	–	–	–	–	–	–	1.1 ± 0.8 mm^2	64.5%	–	–	–	–
NCCC(=O)N[C@@H](Cc1c[nH]cn1)C(=O)O [L-Carnosine, L-carnosine]	10.7 ± 2.2 mm and 12.1 ± 2.5 mm	29.6% and 30.9%	–	–	17.3 ± 3.0 mm and 17.1 ± 3.1 mm	~ 0%	–	12.5%	17.3 ± 3.2 mm and 18.0 ± 2.7 mm	28.2% and 21.7%	–	Ulcer index (total length of all lesions) ([1]; 300 mg/kg): 14.2 ± 3.7 mm and 16.0 ± 4.0 mm; % Inhibition ([1]; 300 mg/kg): 6.6% and 8.6%
NC(=O)CC[C@H](N)C(=O)O [L-Glutamine, L-glutamine]	–	–	6.0 ± 2.2 mm and 4.5 ± 1.5 mm	66.1% and 73.2%	9.5 ± 4.1 mm and 9.7 ± 3.9 mm	41.8% and 42.3%	–	8.3%	–	–	–	–
CC(=O)N[C@@H](CCC(N)=O)C(=O)O.[Al] [N-Acetyl-L-glutamine aluminum, N-acetyl-L-glutamine aluminum]	–	–	–	–	–	–	–	–	–	–	–	Ulcer index (total length of all lesions) ([1]; 2,000 mg/kg): 5.5 ± 4.8 mm; % Inhibition ([1]; 2,000 mg/kg): 68.6%; inhibition in vivo at 2000 mg/kg ([6]; Rattus norvegicus, po, 14 h, 2,000 mg/kg, vs control of the same run): 67.7%; Ulcer index (total length of all lesions) ([7]; 2,000 mg/kg): 8.5 ± 3.0 mm; % Inhibition ([7]; 2,000 mg/kg): 63.0%
aluminum sucrose sulfate	6.5 ± 6.0 mm and 7.3 ± 6.8 mm	56.7% and 58.3%	3.7 ± 2.1 mm and 2.0 ± 1.1 mm	79.1% and 88.1%	7.8 ± 3.0 mm and 7.4 ± 2.8 mm	52.1% and 56.0%	0.8 ± 0.6 mm^2 and 0.9 ± 0.5 mm^2 and 0.7 ± 0.8 mm^2 and 0.8 ± 0.9 mm^2	–	14.4 ± 1.5 mm and 10.7 ± 2.1 mm	40.2% and 53.5%	72.4% and 71.0% and 71.7% and 68.0%	–
